Tests used:
[1] = biological target: T1, human TRPV1 receptor (hTRPV1) (Homo sapiens (Human), UniProt Q8NER1); test: Acid activation assay (pH 5.0, FLIPR intracellular Ca2+); assay type: cell-based; details: Table 2; 37.5 μM compound; percentage of maximal pH 5.0-induced response
rats = test: Rat tail immersion assay (noxious thermosensation, 55° C. water bath); assay type: in vivo; details: rat, oral 100 μmol/kg, one hour post dosing, relative to vehicle
Experimental: Compounds were tested for their effects on noxious thermosensation using the tail immersion assay. Testing was performed one hour following oral administration of 100 μmol/kg of the compound in 10% ethanol/20% Tween-80/70% PEG-400 (2 mL/kg). Mophine (6 mg/kg) was administered interperitoneally (i.p.) using saline (2 mL/kg) as the vehicle. For testing, a circulating water bath was heated to 55° C. Thirty to sixty minutes post dosing, the rats were handled for a few seconds to calm them down and then cupped with their back against the testers hand at a slight angle with head facing away from tester. With rat in one hand and a 0.01 second stopwatch in the other hand, the tail was quickly immersed 6-8 cm in water bath or to a distance leaving 2-3 cm of tail out of water. The timer was started simultaneously. When the rat flinched or attempted withdrawal, timer was immediately stopped and the rat's tail was quickly removed from water bath. This response latency (in seconds) was recorded. Process was repeated 3 times with 3-4 minutes between readings for a final average.
For a given example, a percent increase in the average response latency (in seconds) for tail withdrawal relative to a vehicle control was determined % increase=[(tc−tv)/tv]×100%
tc=response time (in seconds) with oral dosing of compounds
tv=response time (in seconds) with oral dosing of vehicle
The % increases in tail withdrawal latency relative to vehicle control are divided into the following categories: […]

[2] = biological target: T1, human TRPV1 receptor (hTRPV1); test: Capsaicin activation assay (FLIPR intracellular Ca2+); assay type: cell-based; details: Table 2; capsaicin-induced intracellular Ca2+ increase; read-out: human TRPV1 capsaicin IC50
Summary of the method: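 Recombinant HEK293 cells stably expressing hTRPV1, Calcium-4 dye loaded 90–120 min at room temperature, were preincubated with compound (12-point, one-third-log) for 3 min before capsaicin challenge. Peak FLIPR fluorescence minus baseline was normalised to capsaicin control response; IC50 from four-parameter logistic fit.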

T1 sequence (Q8NER1 whole entry): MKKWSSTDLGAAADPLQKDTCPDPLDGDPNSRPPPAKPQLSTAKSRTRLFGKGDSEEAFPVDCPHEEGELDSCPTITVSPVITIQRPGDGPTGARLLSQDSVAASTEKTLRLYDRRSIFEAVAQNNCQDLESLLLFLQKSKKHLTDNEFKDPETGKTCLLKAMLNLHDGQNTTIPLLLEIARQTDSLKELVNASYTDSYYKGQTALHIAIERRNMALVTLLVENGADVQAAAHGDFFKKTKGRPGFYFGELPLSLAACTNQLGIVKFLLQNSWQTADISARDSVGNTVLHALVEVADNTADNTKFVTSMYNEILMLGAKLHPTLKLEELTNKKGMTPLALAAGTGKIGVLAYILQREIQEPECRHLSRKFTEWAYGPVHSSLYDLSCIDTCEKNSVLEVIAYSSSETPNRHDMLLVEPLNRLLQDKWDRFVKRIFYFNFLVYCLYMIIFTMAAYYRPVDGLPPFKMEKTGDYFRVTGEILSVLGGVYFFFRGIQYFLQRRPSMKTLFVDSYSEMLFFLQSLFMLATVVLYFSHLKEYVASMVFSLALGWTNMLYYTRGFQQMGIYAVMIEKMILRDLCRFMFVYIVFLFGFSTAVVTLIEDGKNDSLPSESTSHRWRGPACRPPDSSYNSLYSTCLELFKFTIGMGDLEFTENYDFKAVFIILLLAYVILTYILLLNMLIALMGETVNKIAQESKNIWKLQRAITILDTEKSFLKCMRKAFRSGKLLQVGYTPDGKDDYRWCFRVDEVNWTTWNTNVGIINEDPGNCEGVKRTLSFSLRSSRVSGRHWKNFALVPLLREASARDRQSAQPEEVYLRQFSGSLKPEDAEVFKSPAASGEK

CC(C)(C)c1ccc(Nc2ncnc3cc(-c4ncccc4C(F)(F)F)ccc23)cc1 [B, reference compound]
human TRPV1 H+ (max % remain) [1]: 1% | % Increase in Tail Withdrawal Latency (rats): +++ (greater than or equal to 25% increase)

CC(=O)Nc1nc2c(Oc3cc(-c4ccc(C(F)(F)F)cc4)ncn3)cccc2s1 [A, reference compound]
human TRPV1 H+ (max % remain) [1]: 10% | % Increase in Tail Withdrawal Latency (rats): +++ (greater than or equal to 25% increase)

CC(C)(C)c1ccc2c(c1)CC[C@H]2NC(=O)Nc1cccc2[nH]cnc12 [C, reference compound]
IC50 [2]: 35 nM | human TRPV1 H+ (max % remain) [1]: 1% | % Increase in Tail Withdrawal Latency (rats): +++ (greater than or equal to 25% increase)

Cc1nc(Nc2cccc3c2C[C@H](O)CC3)oc1-c1ccc(C(F)(F)F)cc1 [D, reference compound]
human TRPV1 H+ (max % remain) [1]: 3% | % Increase in Tail Withdrawal Latency (rats): +++ (greater than or equal to 25% increase)

Cc1cccnc1N1CC=C(C(=O)Nc2ccc(S(=O)(=O)C(F)(F)F)cc2)CC1 [E, reference compound]
human TRPV1 H+ (max % remain) [1]: 2% | % Increase in Tail Withdrawal Latency (rats): +++ (greater than or equal to 25% increase)
